Biological target: Ube2V2 (Homo sapiens, UniProt Q15819)
Assay: T-REX in zebrafish embryos, biotin/streptavidin pulldown of HNEylated Ube2V2
Type: in vivo
Conditions: human Halo-Ube2V2 mRNA-injected embryos
Procedure: Zebrafish cell lysis was performed with similar procedure as mammalian cells: 50 mM HEPES (pH 7.6), 150 mM NaCl, 1% Nonidet P-40, 0.2 mg/ml soybean protease inhibitor (Sigma), and 3× Roche cOmplete, mini, EDTA-free protease inhibitor cocktail by rapid freeze-thaw and votexing with zirconia beads (Bio spec 0.7 mm beads; 11079107zx).
Total protein concentration from either mammalian cell lysate or zebrafish lysate was determined using Bradford assay with BSA as standard. The lysate was subsequently diluted to 2 mg/mL with a buffer made up of 50 mM HEPES (pH 7.6) and 0.3 mM TCEP, and subjected to Click reaction with biotin azide for 30 min at 37° C. The final concentrations of each components were: 1% SDS, 5% t-BuOH, 200 μM Biotin azide, 2 mM TCEP, 0.9 mM CuSO4 and 0.1 mM Cu(TBTA). The lysate proteins were precipitated by adding 4 volumes of EtOH pre-chilled at −20° C. (EtOH final concentration is 80%). The sample was vortexed and incubated at −80° C. overnight (or at least 4 h) to facilitate precipitation. The precipitant was collected by centrifugation at 21,000×g for 120 min at 4° C. and washed twice with pre-chilled MeOH, once with pre-chilled acetone. […]
DDR preconditioning occurs in zebrafish embryos. […] Subsequently, the fish were fixed and γ-H2AX levels were measured using whole-mount immunofluorescence.

Sequence of Ube2V2 (Q15819 whole entry): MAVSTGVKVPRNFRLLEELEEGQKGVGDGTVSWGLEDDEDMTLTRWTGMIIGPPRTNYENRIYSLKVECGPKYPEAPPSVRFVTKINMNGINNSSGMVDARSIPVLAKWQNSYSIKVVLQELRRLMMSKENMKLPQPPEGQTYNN

CCCCCC(O)/C=C/C=O (stereo not shown) [HNE, 4-hydroxynonenal]
HNEylation of Ube2V2 in zebrafish: significantly HNEylated
